{
  "source": "paper PMC11500415",
  "about": "“Chemical inhibition of stomatal differentiation by perturbation of the master-regulatory bHLH heterodimer via an ACT-Like domain” (Nature Communications, 2024)",
  "target": "T1, MUTE_ACTLR133A_R134A (Arabidopsis thaliana, UniProt Q9M8K6, R133A/R134A)",
  "T1 construct": "MUTE-ACTL (114-202); made in house; host or cells: E. coli BL21",
  "T1 sequence (Q9M8K6 114-202 R133A/R134A)": "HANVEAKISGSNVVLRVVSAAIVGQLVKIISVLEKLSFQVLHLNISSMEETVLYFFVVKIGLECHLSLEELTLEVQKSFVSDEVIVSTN",
  "test": "BLI direct binding",
  "design": "species or system A. thaliana",
  "details": "for koff: read-out: kdis(1/s), MUTE_R133A_R134A on Anti-GST sensor",
  "source_text": "A. thaliana SCRM (1-494), ΔNSPCH (98-364), MUTE (1-202), ΔNFAMA (190-414), MUTEΔC (1-114), MUTER133A_R134A, MUTEE162A_E163A, MUTER133A_R134A_E162A_E163A, SCRM-ACTL (405-494), MUTE-ACTL (114-202), SPCH-ACTL (285-364), FAMA-ACTL (306-414), MUTE_ACTLR133A_R134A, MUTE_ACTLE162A_E163A, MUTE_ACTLR133A_R134A_E162A_E163A were cloned into pGEX-4T-1 vector with an N-terminal GST tag and a thrombin cleavage sequence. For protein expression, the constructs were transformed into E. coli strain BL21. For each transformant, a single colony was selected and incubated in 10 ml LB liquid media. The overnight-incubated E. coli suspensions were transferred to 1 L LB medium and incubated at 37 °C for around 2 h until the OD600 reached 0.4–0.6. The isopropyl β-D-1-thiogalactopyranoside ([…] of final concentration) was added to the cultures and the strains were incubated at 22 °C for a further 18 h. GST-fused proteins were purified using glutathione agarose resin. The soluble portion of the cell lysate was loaded onto a GST-Sepharose column. Nonspecifically bound proteins were removed by washing the column with 20 mM Tris pH 8.0, 200 mM NaCl. The bound GST-fused protein was eluted with 10 mm glutathione and 20 mM Tris pH 8.0, 200 mM NaCl. The GST-fused proteins were exchanged with phosphate-buffered saline buffer, and then the solution was treated with 50 μg of thrombin for 10–12 h at 16 ^οC. The GST portion of the protein was cleaved during thrombin digestion, and then the whole solution was reloaded onto the glutathione S-transferase column to obtain pure protein. The purified proteins were further purified by gel filtration on a Superdex-200 (GE) column using fast protein liquid chromatography and phosphate buffer (pH 7.2) as the eluent. The purity of the protein was checked by SDS-PAGE. For detailed lists of oligo DNA and plasmid information, see Supplementary Tables 5, 6, respectively.\nThe binding affinities of SCRM to MUTE / MUTER133A_R134A / MUTEE162A_E163A / MUTER133A_R134A_E162A_E163A in presence and absence of Stomidazolone (3) and its analogues (AYSJ1059 (5) and AYSJ1061 (6)), and Stomidazolone / AYSJ1059 / AYSJ1061 interactions with GST-tagged SCRM, MUTE, SPCH, FAMA, MUTE ΔACTL, MUTE_ACTL, SCRM_ACTL, SPCH_ACTL and FAMA_ACTL, MUTER133A_134A, MUTEE162A_E163A, MUTER133A_R134A_E162A_E163A were measured using the Octet Red96 system (ForteBio, Pall Life Sciences) following the manufacturer’s protocols. The optical probes coated with anti-GST were first loaded with 500 nM GST tagged proteins before kinetic binding analyses. The experiment was performed in 96-well plates maintained at 30 °C. Each well was loaded with 200 μL reaction volume for the experiment. The binding buffer used in these experiments contained 1× PBS supplemented with 2% DMSO, 0.02% Tween20. The concentrations of the Stomidazolone as the analyte in the binding buffer were 100, 50, 25, 12.5, 6.25, 3.12, and 1.56 μM. There was no binding of the analytes to the unloaded probes as shown by the control wells. Binding kinetics to all seven concentrations of the analytes were measured simultaneously using default parameters on the instrument. The data were analyzed using the Octet data analysis software. The association and dissociation curves were fit with the 1:1 homogeneous ligand model. The kobs (observed rate constant) values were used to calculate Kd, with steady-state analysis of the direct binding. See Supplementary Table 3 for details.",
  "key": {"[1]": {"details": "MUTE_R133A_R134A on Anti-GST sensor, Stomid 3.12 µM, rep-1, rep-2"}, "[2]": {"details": "MUTE_R133A_R134A on Anti-GST sensor, Stomid 6.25 µM, rep-1, rep-2"}, "[3]": {"details": "MUTE_R133A_R134A on Anti-GST sensor, Stomid 12.5 µM, rep-1, rep-2"}, "[4]": {"details": "MUTE_R133A_R134A on Anti-GST sensor, Stomid 25 µM, rep-1, rep-2"}, "[5]": {"details": "MUTE_R133A_R134A on Anti-GST sensor, Stomid 50 µM, rep-1, rep-2"}, "[6]": {"details": "MUTE_R133A_R134A on Anti-GST sensor, Stomid 100 µM, rep-1, rep-2"}, "[7]": {"details": "MUTE_R133A_R134A on Anti-GST sensor, Stomid 200 µM, rep-1, rep-2"}},
  "note": "Several values for one entry are separate records, joined by “and”; a condition that tells them apart may be missing. Identical values can stand only once. Like-named read-outs stand apart in the source and are kept apart here.",
  "data": [
    {"compound": "O=C1C(c2ccccc2)=NC(NS(=O)(=O)c2ccccc2)(c2ccccc2)N1S(=O)(=O)c1ccccc1", "note": "(centres unmarked) [Stomidazolone]", "values": [
      {"measurement": "Kd", "setting": "BLI, MUTE_ACTL R133A_R134A", "value": "120 ± 5.5", "unit": "µM"},
      {"measurement": "Kd", "setting": "[1]", "value": "127 µM and 126 µM"},
      {"measurement": "RMax", "setting": "[1]", "value": "0.03 and 0.048"},
      {"measurement": "Req/Rmax(%)", "setting": "[1]", "value": "93.1% and 100%"},
      {"measurement": "Response", "setting": "[1]", "value": "0.027 and 0.0456"},
      {"measurement": "Kd", "setting": "[2]", "value": "128 µM and 127 µM"},
      {"measurement": "RMax", "setting": "[2]", "value": "0.06 and 0.08"},
      {"measurement": "Req/Rmax(%)", "setting": "[2]", "value": 100, "unit": "%"},
      {"measurement": "Response", "setting": "[2]", "value": "0.058 and 0.079"},
      {"measurement": "kobs", "setting": "[2]", "value": "0.00193 s⁻¹ and 0.00258 s⁻¹"},
      {"measurement": "kon", "setting": "[2]", "value": 976, "unit": "M⁻¹ s⁻¹"},
      {"measurement": "Kd", "setting": "[3]", "value": "126 µM and 124 µM"},
      {"measurement": "RMax", "setting": "[3]", "value": "0.092 and 0.085"},
      {"measurement": "Req/Rmax(%)", "setting": "[3]", "value": "93.1% and 100%"},
      {"measurement": "Response", "setting": "[3]", "value": "0.092 and 0.081"},
      {"measurement": "kdis", "setting": "[3]", "value": 0.124, "unit": "s⁻¹"},
      {"measurement": "Kd", "setting": "[4]", "value": "128 µM and 126 µM"},
      {"measurement": "Req/Rmax(%)", "setting": "[4]", "value": "78.8% and 93.9%"},
      {"measurement": "kdis", "setting": "[4]", "value": 0.123, "unit": "s⁻¹"},
      {"measurement": "kobs", "setting": "[4]", "value": "0.00186 s⁻¹ and 0.00281 s⁻¹"},
      {"measurement": "kon", "setting": "[4]", "value": 975, "unit": "M⁻¹ s⁻¹"},
      {"measurement": "Kd", "setting": "[5]", "value": "127 µM and 125 µM"},
      {"measurement": "RMax", "setting": "[5]", "value": "0.195 and 0.225"},
      {"measurement": "Response", "setting": "[5]", "value": "0.193 and 0.2221"},
      {"measurement": "kdis", "setting": "[5]", "value": 0.122, "unit": "s⁻¹"},
      {"measurement": "kon", "setting": "[5]", "value": 976, "unit": "M⁻¹ s⁻¹"},
      {"measurement": "Kd", "setting": "[6]", "value": "130 µM and 127 µM"},
      {"measurement": "RMax", "setting": "[6]", "value": "0.244 and 0.289"},
      {"measurement": "Req/Rmax(%)", "setting": "[6]", "value": "96.5% and 96.6%"},
      {"measurement": "Response", "setting": "[6]", "value": "0.242 and 0.284"},
      {"measurement": "kobs", "setting": "[6]", "value": "0.00717 s⁻¹ and 0.00706 s⁻¹"},
      {"measurement": "kon", "setting": "[6]", "value": 980, "unit": "M⁻¹ s⁻¹"},
      {"measurement": "Kd", "setting": "[7]", "value": "127 µM and 130 µM"},
      {"measurement": "RMax", "setting": "[7]", "value": "0.344 and 0.38"},
      {"measurement": "Req/Rmax(%)", "setting": "[7]", "value": "99.9% and 99.8%"},
      {"measurement": "Response", "setting": "[7]", "value": "0.341 and 0.375"},
      {"measurement": "kdis", "setting": "[7]", "value": 0.125, "unit": "s⁻¹"},
      {"measurement": "kobs", "setting": "[7]", "value": "0.0285 s⁻¹ and 0.0284 s⁻¹"},
      {"measurement": "kon", "setting": "[7]", "value": 960, "unit": "M⁻¹ s⁻¹"},
      {"measurement": "koff", "setting": "Stomid 3.12 µM, rep-1, rep-2", "value": 0.122, "unit": "s⁻¹"},
      {"measurement": "koff", "setting": "Stomid 6.25 µM, rep-1, rep-2", "value": 0.124, "unit": "s⁻¹"},
      {"measurement": "koff", "setting": "Stomid 12.5 µM, rep-1, rep-2", "value": 0.125, "unit": "s⁻¹"},
      {"measurement": "koff", "setting": "Stomid 25 µM, rep-1, rep-2", "value": 0.125, "unit": "s⁻¹"},
      {"measurement": "koff", "setting": "Stomid 50 µM, rep-1, rep-2", "value": 0.123, "unit": "s⁻¹"},
      {"measurement": "koff", "setting": "Stomid 100 µM, rep-1, rep-2", "value": 0.125, "unit": "s⁻¹"},
      {"measurement": "koff", "setting": "Stomid 200 µM, rep-1, rep-2", "value": 0.126, "unit": "s⁻¹"},
      {"measurement": "kon", "setting": "read-out: kon(1/Ms), MUTE_R133A_R134A on Anti-GST sensor, Stomid 3.12 µM, rep-1, rep-2", "value": 966, "unit": "M⁻¹ s⁻¹"},
      {"measurement": "kon", "setting": "read-out: kon(1/Ms), MUTE_R133A_R134A on Anti-GST sensor, Stomid 6.25 µM, rep-1, rep-2", "value": 970, "unit": "M⁻¹ s⁻¹"},
      {"measurement": "kon", "setting": "read-out: kon(1/Ms), MUTE_R133A_R134A on Anti-GST sensor, Stomid 12.5 µM, rep-1, rep-2", "value": 990, "unit": "M⁻¹ s⁻¹"},
      {"measurement": "kon", "setting": "read-out: kon(1/Ms), MUTE_R133A_R134A on Anti-GST sensor, Stomid 25 µM, rep-1, rep-2", "value": 980, "unit": "M⁻¹ s⁻¹"},
      {"measurement": "kon", "setting": "read-out: kon(1/Ms), MUTE_R133A_R134A on Anti-GST sensor, Stomid 50 µM, rep-1, rep-2", "value": 970, "unit": "M⁻¹ s⁻¹"},
      {"measurement": "kon", "setting": "read-out: kon(1/Ms), MUTE_R133A_R134A on Anti-GST sensor, Stomid 100 µM, rep-1, rep-2", "value": 960, "unit": "M⁻¹ s⁻¹"},
      {"measurement": "kon", "setting": "read-out: kon(1/Ms), MUTE_R133A_R134A on Anti-GST sensor, Stomid 200 µM, rep-1, rep-2", "value": 990, "unit": "M⁻¹ s⁻¹"}
    ]}
  ]
}
